Assay results reported in ChEMBL document CHEMBL1130098, “4-Heterocyclylpiperidines as selective high-affinity ligands at the human dopamine D4 receptor” (J Med Chem, 1997).

How the values were obtained:
D(4) dopamine receptor = target: T1, D(4) dopamine receptor (Homo sapiens, UniProt P21917)
T1 sequence (P21917 whole entry): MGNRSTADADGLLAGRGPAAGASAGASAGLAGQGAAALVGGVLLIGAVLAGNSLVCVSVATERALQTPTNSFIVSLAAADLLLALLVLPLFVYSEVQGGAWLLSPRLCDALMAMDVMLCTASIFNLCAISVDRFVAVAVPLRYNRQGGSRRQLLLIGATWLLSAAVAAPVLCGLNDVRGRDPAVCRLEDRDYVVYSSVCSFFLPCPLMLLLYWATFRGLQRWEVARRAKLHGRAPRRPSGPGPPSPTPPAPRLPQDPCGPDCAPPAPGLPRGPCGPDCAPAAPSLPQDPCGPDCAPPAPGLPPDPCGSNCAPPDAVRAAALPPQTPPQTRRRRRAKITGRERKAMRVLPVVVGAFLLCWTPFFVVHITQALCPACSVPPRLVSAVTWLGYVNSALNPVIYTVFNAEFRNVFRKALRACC
Description: Ability to displace [3H]spiperone from human dopamine receptor D4 (hD4) receptor stably expressed in HEK293 cells.

D(3) dopamine receptor = D(3) dopamine receptor (Homo sapiens, UniProt P35462)
Sequence of D(3) dopamine receptor (P35462 whole entry): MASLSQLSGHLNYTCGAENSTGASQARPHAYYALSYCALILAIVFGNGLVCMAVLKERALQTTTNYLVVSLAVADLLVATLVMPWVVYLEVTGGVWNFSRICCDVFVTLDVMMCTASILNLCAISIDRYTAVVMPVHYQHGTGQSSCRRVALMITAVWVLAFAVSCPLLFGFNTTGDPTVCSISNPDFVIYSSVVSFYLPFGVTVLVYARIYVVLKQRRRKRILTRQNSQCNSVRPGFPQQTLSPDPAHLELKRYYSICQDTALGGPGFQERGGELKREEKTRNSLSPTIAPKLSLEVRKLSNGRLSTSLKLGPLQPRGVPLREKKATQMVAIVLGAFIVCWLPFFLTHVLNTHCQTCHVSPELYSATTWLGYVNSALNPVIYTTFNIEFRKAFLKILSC
Description: Ability to displace [3H]spiperone from human dopamine receptor D3 (hD3) receptor stably expressed in HEK293 cells.

SMILES | Ki (D(4) dopamine receptor) [nM] | Ki (D(3) dopamine receptor) [nM]
CC1(C(=O)/C=C(\O)c2ccc(Cl)cc2)CCN(Cc2ccccc2)CC1 | 350 | 510
Clc1ccc(-c2cc(C3CCN(Cc4ccccc4)C3)[nH]n2)cc1 (configuration not stated) | 110 | 920
Clc1ccc(-c2cc(C3CCCN(Cc4ccccc4)C3)[nH]n2)cc1 (configuration not stated) | 410 | 240
Clc1ccc(-c2cc(C3CCN(CC4CCCCC4)CC3)[nH]n2)cc1 | 13 | 720
Cc1c(-c2ccc(Cl)cc2)nc(N)nc1C1CCN(CCc2ccccc2)CC1 | 4.7 | 1100
Clc1ccc(-c2cc(C3CCNCC3)[nH]n2)cc1 | > 3300 | > 4400
Clc1ccc(-c2cc(C3CCN(Cc4ccccc4Cl)CC3)[nH]n2)cc1 | 20 | 1300
Cc1cc(C2CCN(Cc3ccccc3)CC2)[nH]n1 | 470 | 3400
c1ccc(CCN2CCC(c3cc(-c4cccs4)[nH]n3)CC2)cc1 | 19 | 1100
c1ccc(CN2CCC(c3cc(-c4ccccc4)[nH]n3)CC2)cc1 | 11 | 1400
Clc1ccc(-c2cc(C3CCN(Cc4ccccc4)CC3)[nH]n2)cc1 | 9.1 | 160
Clc1ccc(-c2cc(C3CCCCN3Cc3ccccc3)[nH]n2)cc1 (configuration not stated) | 4800 | 1800
c1ccc(CCN2CCN(c3cc(-c4ccccc4)[nH]n3)CC2)cc1 | 23 | 1200
CCc1c(C2CCN(Cc3ccccc3)CC2)n[nH]c1-c1ccc(Cl)cc1 | 1.5 | 46
c1ccc(CCN2CCC(c3cc(-c4ccccn4)[nH]n3)CC2)cc1 | 22 | 3600
Cc1c(-c2ccccc2)n[nH]c1C1=CCN(CCc2ccccc2)CC1 | 3.1 | 830
Clc1ccc(-c2cc(C3CCN(CCCc4ccccc4)CC3)[nH]n2)cc1 | 110 | 870
O=C(/C=C(\O)c1ccc(Cl)cc1)C1CCN(Cc2ccccc2)CC1 | 12 | 510
Clc1ccc(CN2CCC(c3cc(-c4ccc(Cl)cc4)no3)CC2)cc1 | – | 80
Clc1ccc(-c2cc(C3CCN(Cc4cccc(Cl)c4)CC3)[nH]n2)cc1 | 60 | 4300
CC1(c2cc(-c3ccc(Cl)cc3)[nH]n2)CCN(Cc2ccccc2)CC1 | 47 | 1300
CN1CCC(c2cc(-c3ccc(Cl)cc3)[nH]n2)CC1 | 1200 | > 1900
c1ccc(CCN2CCC(c3cc(C4CCCCC4)n[nH]3)CC2)cc1 | 10 | 1200
c1ccc(CCN2CCC(c3cc(-c4cccnc4)n[nH]3)CC2)cc1 | 23 | > 4200
Cc1c(C2CCN(Cc3ccccc3)CC2)n[nH]c1-c1ccc(Cl)cc1 | 1.6 | 430
c1ccc(Cc2cc(C3CCN(Cc4ccccc4)CC3)[nH]n2)cc1 | 160 | 2100
c1ccc(CCN2CCC(c3cc(-c4ccncc4)n[nH]3)CC2)cc1 | 52 | > 4000
c1ccc(CCN2CCC3(CCc4c(-c5ccccc5)n[nH]c43)CC2)cc1 | 930 | 600
Nc1nc(-c2ccc(Cl)cc2)cc(C2CCN(Cc3ccccc3)CC2)n1 | 1 | 140
